Data taken from US9422309B2, “3-O-heteroaryl-ingenol” (LEO LABORATORIES LIMITED, priority 2012, dated 2016).

Assays:
Assay type in all cases: cell-based
[1] = system: Primary human epidermal keratinocytes, HeKa; experiment: HeKa cytokine release (IL-8); conditions: 6 h at 37° C., normalised to 1.5×10^−7 M PEP0005, read-out: HeKa cytokine release (IL-8) Rel EC50 range
Protocol: Primary human epidermal keratinocytes, HeKa, are seeded (10.000 cells/well) in 96-well plates the day before the assay. Test compounds are diluted in DMSO (dimethyl sulfoxide) and further diluted in assay medium and pipetted into wells of 96 well-plates containing HeKa cells. The plates are incubated for 6 h at 37° C. in humidified air with 5% CO2. Plates are centrifuged briefly to spin down cells at 4° C., the supernatant is removed and analysed by Meso Scale Discovery (MSD) 4-spot cytokine assay (Pro-inflammatory II Ultra Sensitive kit, MSD, MD, USA). The MSD assay employs a sandwich immunoassay format where capture antibodies are coated in a patterned array on the bottom of the wells of a 4-Spot-Multi-MSD plate. Standard samples are incubated in the MULTI-SPOT plates as well, and the cytokine (IL-8) binds to its corresponding capture antibody spot. The cytokine level is quantitated on a SECTOR™ Imager using a cytokine-specific Detection Antibody labelled with MSD SULFO-TAG™ reagent.
(§1) Test compound titration curves are fitted to a four-parameter sigmoidal curve after normalizing the effect of the test compound to the effect of the positive control (1.5×10^−7 M PEP0005). Rel EC50 denotes the concentration of test compound producing an effect that is midway between the fitted top and bottom.

[2] = system: PMN's (polymorphonuclear leukocytes); experiment: Neutrophil oxidative burst; conditions: Leukocyte, 40 min; 40 min incubation at rt; normalised to 5×10^−7 M PEP0005; read-out: Neutrophil oxidative burst Rel EC50 range
Protocol: PMN's (polymorphonuclear leukocytes) are isolated and purified from fresh buffy coats by sequential sedimentation, density centrifugation and lysis of contaminating erythrocytes. In brief, buffy coats are incubated with 2% methocel for 30-45 min to differentially sediment red blood cells. The leukocyte-rich supernatant is transferred to lymphoprep tubes to remove mononuclear cells by density centrifugation (400×g, 30 min). The pellet is resuspended and any remaining erythrocytes lysed using 0.2% NaCl for 30 sec before restoring isotonicity by the addition of 1.2% NaCl. This step is repeated until the cell pellet appears relatively free of red blood cells. Cells are resuspended in DPBS (Dulbecco's Phosphate Buffered Saline) (w.o. Ca^2+, Mg^2+) and the concentration adjusted to 1.4×10^6 cells/ml in HBSS (Hanks Balanced Salt solution) (w Ca^2+, Mg^2+) containing 0.1% BSA (Bovine Serum Albumin) and 5 mM glucose just prior to assay initiation. Titrated reference and test compounds are pre-mixed with HE (Hydroethidine) (10 μM final assay concentration) before addition to 96-well plates containing 2.5×10^5 cells. Following 40 min incubation at rt, changes in the respiratory burst is estimated by measuring fluorescence at 579 nm (excitation: 485 nm) using an Envision plate reader.
as §1, with “(5×10^−7” for “(1.5×10^−7”, “bottom. Abs EC50 is the concentration of test compound that provokes a response corresponding to 50% of the maximal effect associated with the positive control (5×10^−7 M PEP0005).” for “bottom.”

[3] = system: HeLa cells; experiment: Necrosis assay; conditions: Homo sapiens, 0.5 h, 30 min at 37° C., PrestoBlue, normalised to 4 10^−4 M PEP0005/ingenol mebutate, read-out: HeLa necrosis EC50 range
Protocol: HeLa cells (ATCC CCL-002) were grown in minimal essential medium (Invitrogen catalog no. 42360) containing 10% fetal bovine serum, 100 IU/ml penicillin and 100 μg/ml streptomycin. 4,000-6,000 cells were seeded into 96-well black ViewPlates-plates, clear bottom, (Perkin Elmer) in 100 μl medium and incubated overnight. Compounds were dissolved and pre-diluted in DMSO in 96-well polypropylene plates (Greiner) in a concentration range of 15 μM to 600 μM. At the time of the experiment cell plates were placed on heating blocks at 37° C., medium was removed and 40 μl fresh, pre-warmed medium was added per well. Cells were incubated for 15 min before addition of compounds. In parallel, 3 μl of compounds were diluted with 197 μl growth medium on a Tecan freedom-EVO pipetting station using 250 μl/s pipetting speed, in order to ensure effective mixing of the highly concentrated compound solutions with the aqueous phase.
These pre-dilution plates were then equilibrated on heating blocks at 37° C. for 10 min. 80 μl pre-diluted compound were transferred manually to the corresponding wells containing HeLa cells yielding compound concentrations of 10 μM to 400 μM. Control conditions were 1% DMSO in growth medium (100% viability) and 400 μM ingenol mebutate in growth medium (0% viability). Plates were incubated on the heating blocks at 37° C. for 30 min. At the end of the incubation 10 μl PrestoBlue reagent (Invitrogen) were added to each well, plates were sealed with black seal, followed by incubation at 37° C. for 10 min with gentle shaking (150 rpm). Subsequently, plates were placed at room temperature for 20-30 min. Plates were read immediately after on an Envision Fluorescence reader (Perkin Elmer) with excitation at 535 nm and emission at 630 nm. Test compound titration curves were fitted to a four-parameter sigmoidal curve after normalizing the effect of the test compound to the effect of the positive control (4 10^−4 M PEP0005/ingenol mebutate). Abs EC50 denotes the concentration of test compound producing 50% effect.

SMILES	EC50 [1] [nM]	EC50 [2] [nM]	EC50 [3] [nM]
CC1=C[C@]23C(=O)[C@@H](C=C(CO)[C@@H](O)[C@]2(O)[C@H]1Oc1nccc2sccc12)[C@H]1[C@@H](C[C@H]3C)C1(C)C [Compound 127, 3-O-(Thieno[3,2-c]pyridine-4-yl)-ingenol]	20 to 100	20 to 100	150000 to 350000
CC1=C[C@]23C(=O)[C@@H](C=C(CO)[C@@H](O)[C@]2(O)[C@H]1Oc1ncccc1F)[C@H]1[C@@H](C[C@H]3C)C1(C)C [Compound 112, 3-O-(3-Fluoro-2-pyridyl)-ingenol]	≥ 100	20 to 100	≥ 350000
CC1=C[C@]23C(=O)[C@@H](C=C(CO)[C@@H](O)[C@]2(O)[C@H]1Oc1cccc(C(F)(F)F)n1)[C@H]1[C@@H](C[C@H]3C)C1(C)C [Compound 117, 3-O-(6-(Trifluoromethyl)-2-pyridyl)-ingenol]	≥ 100	≥ 100	≥ 350000
CC1=C[C@]23C(=O)[C@@H](C=C(CO)[C@@H](O)[C@]2(O)[C@H]1Oc1nn(C)c2ccccc12)[C@H]1[C@@H](C[C@H]3C)C1(C)C [Compound 107, 3-O-(1-Methylindazol-3-yl)-ingenol]	≥ 100	≥ 100	150000 to 350000
CC1=C[C@]23C(=O)[C@@H](C=C(CO)[C@@H](O)[C@]2(O)[C@H]1Oc1ncccc1Cl)[C@H]1[C@@H](C[C@H]3C)C1(C)C [Compound 115, 3-O-(3-Chloro-2-pyridyl)-ingenol]	20 to 100	20 to 100	150000 to 350000
C=CCn1ccnc1O[C@H]1C(C)=C[C@]23C(=O)[C@@H](C=C(CO)[C@@H](O)[C@]12O)[C@H]1[C@@H](C[C@H]3C)C1(C)C [Compound 109, 3-O-(1-Allylimidazol-2-yl)-ingenol]	–	20 to 100	≥ 350000
CC1=C[C@]23C(=O)[C@@H](C=C(CO)[C@@H](O)[C@]2(O)[C@H]1Oc1nccc2occc12)[C@H]1[C@@H](C[C@H]3C)C1(C)C [Compound 126, 3-O-(Furo[3,2-c]pyridine-4-yl)-ingenol]	–	20 to 100	150000 to 350000
CC1=C[C@]23C(=O)[C@@H](C=C(CO)[C@@H](O)[C@]2(O)[C@H]1Oc1ncccc1C#N)[C@H]1[C@@H](C[C@H]3C)C1(C)C [Compound 116, 3-O-(3-Cyano-2-pyridyl)-ingenol]	≥ 100	20 to 100	≥ 350000
CC1=C[C@]23C(=O)[C@@H](C=C(CO)[C@@H](O)[C@]2(O)[C@H]1Oc1ccccn1)[C@H]1[C@@H](C[C@H]3C)C1(C)C [Compound 106, 3-O-(2-Pyridyl)-ingenol]	20 to 100	≥ 100	≥ 350000
COc1ccc2c(O[C@H]3C(C)=C[C@]45C(=O)[C@@H](C=C(CO)[C@@H](O)[C@]34O)[C@H]3[C@@H](C[C@H]5C)C3(C)C)noc2c1 [Compound 132, 3-O-(6-Methoxy-1,2-benzoxazol-3-yl)-ingenol]	< 20	< 20	≥ 350000
CC1=C[C@]23C(=O)[C@@H](C=C(CO)[C@@H](O)[C@]2(O)[C@H]1Oc1nccn1C1CCCC1)[C@H]1[C@@H](C[C@H]3C)C1(C)C [Compound 120, 3-O-(1-Cyclopentylimidazol-2-yl)-ingenol]	< 20	< 20	150000 to 350000
CC1=C[C@]23C(=O)[C@@H](C=C(CO)[C@@H](O)[C@]2(O)[C@H]1Oc1ncccc1C=O)[C@H]1[C@@H](C[C@H]3C)C1(C)C [Compound 105, 3-O-(3-Formyl-2-pyridyl)-ingenol]	≥ 100	≥ 100	≥ 350000
CC1=C[C@]23C(=O)[C@@H](C=C(CO)[C@@H](O)[C@]2(O)[C@H]1Oc1ccc(C(F)(F)F)cn1)[C@H]1[C@@H](C[C@H]3C)C1(C)C [Compound 103, 3-O-(5-(Trifluoromethyl)-2-pyridyl)-ingenol]	20 to 100	–	150000 to 350000
CC1=C[C@]23C(=O)[C@@H](C=C(CO)[C@@H](O)[C@]2(O)[C@H]1Oc1noc2cc(Cl)ccc12)[C@H]1[C@@H](C[C@H]3C)C1(C)C [Compound 125, 3-O-(6-Chloro-1,2-benzoxazol-3-yl)-ingenol]	< 20	< 20	< 150000
CC1=C[C@]23C(=O)[C@@H](C=C(CO)[C@@H](O)[C@]2(O)[C@H]1Oc1nccn1C)[C@H]1[C@@H](C[C@H]3C)C1(C)C [Compound 108, 3-O-(1-Methylimidazol-2-yl)-ingenol]	≥ 100	≥ 100	≥ 350000
CC1=C[C@]23C(=O)[C@@H](C=C(CO)[C@@H](O)[C@]2(O)[C@H]1Oc1nccc(C(F)(F)F)n1)[C@H]1[C@@H](C[C@H]3C)C1(C)C [Compound 114, 3-O-(4-(Trifluoromethyl)-pyrimidin-2-yl)-ingenol]	≥ 100	≥ 100	≥ 350000
COc1cccnc1O[C@H]1C(C)=C[C@]23C(=O)[C@@H](C=C(CO)[C@@H](O)[C@]12O)[C@H]1[C@@H](C[C@H]3C)C1(C)C [Compound 129, 3-O-(3-Methoxy-pyridin-2-yl)-ingenol]	≥ 100	≥ 100	≥ 350000
CC1=C[C@]23C(=O)[C@@H](C=C(CO)[C@@H](O)[C@]2(O)[C@H]1Oc1nccc2ccccc12)[C@H]1[C@@H](C[C@H]3C)C1(C)C [Compound 119, 3-O-(1-Isoquinolyl)-ingenol]	< 20	20 to 100	150000 to 350000
CC1=C[C@]23C(=O)[C@@H](C=C(CO)[C@@H](O)[C@]2(O)[C@H]1Oc1ncnc(Cl)c1C)[C@H]1[C@@H](C[C@H]3C)C1(C)C [Compound 101, 3-O-(6-Chloro-5-methyl-pyrimidin-4-yl)-ingenol]	< 20	20 to 100	< 150000
CC1=C[C@]23C(=O)[C@@H](C=C(CO)[C@@H](O)[C@]2(O)[C@H]1Oc1nccn1CC(F)F)[C@H]1[C@@H](C[C@H]3C)C1(C)C [Compound 121, 3-O-(1-(2,2-Difluoroethyl)imidazol-2-yl)-ingenol]	≥ 100	20 to 100	–
CC1=C[C@]23C(=O)[C@@H](C=C(CO)[C@@H](O)[C@]2(O)[C@H]1Oc1nccn1CCF)[C@H]1[C@@H](C[C@H]3C)C1(C)C [Compound 122, 3-O-(1-(2-Fluoroethyl)imidazol-2-yl)-ingenol]	≥ 100	≥ 100	–
